Assay results reported in patent US5780497A, “2-phenyl-1-[4-(amino-1-yl-alk-1-ynyl)-benzyl]-1H-indol-5-ols as estrogenic agents” (American Home Products Corporation, priority 1997, dated 1998).

Columns and labels:
estrogen receptor [1] = molecular target: T1, estrogen receptor (Homo sapiens, UniProt P03372); assay: 2X VIT ERE Transfection Assay (luciferase); type: cell-based; set-up: expressed in transfected cells; host or cells: CHO (Chinese Hamster Ovary) cells, stably transfected; conditions: 24 h; read-out: % Activation
T1 sequence (P03372 1-595): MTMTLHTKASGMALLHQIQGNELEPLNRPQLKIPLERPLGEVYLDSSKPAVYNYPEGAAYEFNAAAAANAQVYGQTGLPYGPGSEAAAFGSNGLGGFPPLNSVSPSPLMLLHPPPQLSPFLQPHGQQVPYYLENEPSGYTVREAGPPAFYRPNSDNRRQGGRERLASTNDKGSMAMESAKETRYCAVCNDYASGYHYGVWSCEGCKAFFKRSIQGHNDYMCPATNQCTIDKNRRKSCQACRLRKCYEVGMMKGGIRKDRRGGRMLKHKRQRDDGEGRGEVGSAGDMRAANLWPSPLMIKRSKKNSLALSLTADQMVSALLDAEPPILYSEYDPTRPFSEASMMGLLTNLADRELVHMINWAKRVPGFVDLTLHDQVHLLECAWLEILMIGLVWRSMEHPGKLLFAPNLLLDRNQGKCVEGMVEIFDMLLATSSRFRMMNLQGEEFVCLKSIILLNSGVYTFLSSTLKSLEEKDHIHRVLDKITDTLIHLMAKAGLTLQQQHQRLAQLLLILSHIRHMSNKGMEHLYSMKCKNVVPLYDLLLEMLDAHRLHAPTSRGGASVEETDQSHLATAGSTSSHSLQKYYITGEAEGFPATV

estrogen receptor [2] = molecular target: T1, estrogen receptor; assay: In vitro estrogen receptor binding assay (competition with [3H]-17β-estradiol); set-up: made in house; host or cells: CHO cells overexpressing the receptor (100,000 g cytosol)
Ishikawa cells = assay: Ishikawa Cell Alkaline Phosphatase Assay; type: cell-based; conditions: Homo sapiens, 48 h, read-out: % Activation
Method: Ishikawa Cell Alkaline Phosphatase Assay
Cell Maintenance and Treatment
Ishikawa cells were maintained in DMEM/F12 (50%:50%) containing phenol red+10% fetal bovine serum and the medium was supplemented with 2 mM Glutamax, 1% Pen/Strap and 1 mM sodium pyruvate. Five days prior to the beginning of each experiment (treatment of cells) the medium was changed to phenol red-free DMEM/F12+10% dextran coated charcoal stripped serum. On the day before treatment, cells were harvested using 0.5% trypsin/EDTA and plated at a density of 5×10^4 cells/well in 96-well tissue culture plates. […] Cells were treated for 48 h prior to assay. […] Sample population for at each dose was n=8.
Alkaline Phosnhatase Assay
At the end of 48 h the media is aspirated and cells are washed three times with phosphate buffered saline (PBS). 50 μL of lysis buffer (0.1M Tris-HCl, pH 9.8, 0.2% Triton X-100) is added to each well. Plates are placed at -80° C. for a minimum of 15 minutes. Plates are thawed at 37° C. followed by the addition of 150 μL of 0.1M Tris-HCl, pH 9.8, containing 4 mM para-nitrophenylphosphate (pNPP) to each well (final concentration, 3 mM pNPP).
Absorbance and slope calculations were made using the KineticCalc Application program (Bio-Tek Instruments, Inc., Winooski, Vt.). Results are expressed as the mean±S.D. of the rate of enzyme reaction (slope) averaged over the linear portion of the kinetic reaction curve (optical density readings every 5 minutes for 30 minutes absorbance reading).
The four listed in the following were used as as reference standards:
A description of these methods is described by Holinka, C. F., Hata, H., Kuramoto, H. and Gurpide, E. (1986) Effects of steroid hormones and antisteroids on alkaline phosphatase activity in human endometrial cancer cells (Ishikawa Line). Cancer Research, 46:2771-2774, and by Littlefield, B. A., Gurpide, E., Markiewicz, L., McKinley, B. and Hochberg, R. B. (1990) A simple and sensitive microtiter plate estrogen bioassay based on stimulation alkaline phosphatase in Ishikawa cells; Estrogen action of D5 adrenal steroids. Endocrinology, 6:2757-2762.

uterine growth = conditions: ovariectomized rat, compared with Tamoxifen; cited from earlier work
bone [3] = conditions: rat, in vivo; cited from earlier work
uterus = conditions: in vivo; cited from earlier work
bone [4] = conditions: in humans; cited from earlier work

Emax at 1 µM (estrogen receptor [1]) [%] | RBA (Estrogen Receptor Affinity) (estrogen receptor [2]) | SMILES | Emax (Ishikawa cells) [%] | stimulation of uterine growth (uterine growth) | ability to spare bone (bone [3]) | agonism in the uterus (uterus) | effect on the bone (bone [4])
34 | 53 | Cc1c(-c2ccc(O)cc2)n(Cc2ccc(C#CCN(C)C)cc2)c2ccc(O)cc12 [Example 4, 2-(4-Hydroxy-phenyl)-3-methyl-1-[4-(3-N,N-dimethyl-1-yl-prop-1-ynyl)-benzyl]-1H-indol-5-ol] | 34 |  |  |  | 
17 | 23 | Cc1c(-c2ccc(O)cc2)n(Cc2ccc(C#CCN3CCCCC3)cc2)c2ccc(O)cc12 [Example 5, 2-(4-Hydroxy-phenyl)-3-methyl-1-[4-(3-piperidin-1-yl-prop-1-ynyl)-benzyl]-1H-indol-5-ol] | 27 |  |  |  | 
 |  | O=C(c1ccc(OCCN2CCCCC2)cc1)c1c(-c2ccc(O)cc2)sc2cc(O)ccc12 [Raloxifene] | 5 | to a lesser extent than Tamoxifen | maintaining the ability to spare bone |  | 
 |  | CC/C(=C(\c1ccccc1)c1ccc(OCCN(C)C)cc1)c1ccccc1 [Tamoxifen] | 0 |  |  | partial agonist in the uterus | estrogen agonist-like effect on the bone
